Laboratory results published in patent publication US10329243B2, “Biphenyl derivative and uses thereof” (XI'AN LIBANG PHARMACEUTICAL CO., LTD, priority 2015, dated 2019).

What was measured:
brain cell apoptosis = test: Apoptosis determination (TUNEL method), permanent cerebral ischemia model; assay type: in vivo, SD rats
Description: (§1) Rats were intraperitoneally injected with 10% chloral hydrate 350 mg/kg after anesthesia and opened up at the center of the neck in accordance with the Zea Longa modified method. The right common carotid artery was separated, and the right external carotid artery branches was ligated. A small opening was made at the distal end of the external carotid artery, and a previously prepared thread was inserted through the common carotid artery and the external carotid artery bifurcation into the internal carotid artery, till the anterior end of the middle cerebral artery, with an immersed depth of 18 to 19 mm. The thread was then secured, and the wound was sutured layer by layer. After the operation, the rats were placed in a clean incubator to wake up. […] The sham operation group, the permanent cerebral ischemia model group, and the Example groups were prepared strictly according to the requirements of the cerebral ischemic reperfusion model, while in the sham operation group the thread was put only into the external carotid artery. The animals were allowed to eat and drink freely after waking up. The sham operation group, the permanent cerebral ischemia model group, and the Example groups were administered intravenously the aqueous solution of the biphenyl derivatives in PEG400 at 40 mg/kg (40 mg/kg means that 40 mg of the test compound per kg of the body weight of rats) 30 min before insertion of thread and 12 h after embolism, respectively. The sham operation group and the permanent cerebral ischemia model group were injected with the same amount of blank PEG400 aqueous solution at the same time point.
(§2) 24 hours after the embolism, 8 rats in each group were sacrificed by decapitation, the brain was removed, rinsed with PBS (pH 7.4) at −20°i for 20 min, evenly sliced (with a thickness of 2 mm), stained in a 2% TTC solution at 37°% in the dark for 30 min, fixed in 10% formalin for 24 h, and photographs were taken to analyze the infarct volume. A mixture of femoral arterial and venous blood was drawn from another 8 rats in each group under anesthesia, placed in a low temperature centrifuge at 4° C., centrifuged at 3500 r/min for 20 min, and the supernatant was stored in a refrigerator at −20° C. ready for SOD and MDA detection. After the blood was drawn, a perfusion needle was insert through the apex to the ascending aorta, and saline at 4° C. was rapid infused until the effluent became clear, followed by 4% paraformaldehyde phosphate buffer perfusion for fixation; the brain was removed by craniotomy, and brain tissues 2 mm in front of and behind the optic chiasma were taken and fixed, dehydrated, rendered transparent, impregnated in wax, and embedded. Brain continuous coronary tissue pathological sections were consecutively cut for later use. The remaining 8 rats in each group were sacrificed, brains were removed, the ischemic brain hemispheres were immediately taken on an ice tray, and 10% brain tissue homogenate was prepared for the detection of IL-1β and TNF-α.
The TUNEL method was used for determination. Brain tissue paraffin sections were dewaxed into water, washed with 3% H2O2 to eliminate endogenous peroxidase activity, and rinsed with distilled water for 2 min, repeated 3 times. A labelling solution was added for labelling at 37°t for 2 h, and a blocking solution was added for blocking at room temperature for 30 min. A biotinylated anti-digoxin antibody was added for a reaction at 37°a for 30 min, and SABC was added for a reaction at 37°a for 30 min. The sections were continuously rinsed with TBS for 5 min repeatedly for 4 times, stained with DAB, sufficiently washed, mild counterstained with Hematoxylin, gradient dehydrated with alcohol, made transparent with toluene, sealed and fixed. Five non-overlapping fields in semi-dark band were randomly selected from each section and inputted into the image analysis system. The number of apoptotic cells was counted, and the average was designated the number of apoptotic cells.

[1] = tested on: rats with permanent cerebral ischemia injury; test: Relative infarct volume (TTC, imageJ), permanent cerebral ischemia model; assay type: in vivo, SD rats; conditions: for Relative Brain infarction volume (%): 40 mg/kg intravenously 30 min before insertion of thread and 12 h after embolism, 24 h after the embolism
Description: as §1, §2
The infarct area in each brain section was analyzed and quantified by the imageJ image software, and the ratio of cerebral infarction volume in the overall brain volume was calculated.

[2] = permanent cerebral ischemia model rats, 40 mg/kg intravenously, brain sections 24 h after the embolism, TUNEL, average of five fields

Compound	Relative Brain infarction volume (%) [1] [%]	Number of apoptotic cells (brain cell apoptosis; [2])	further results
3,3′,5,5′-tetraisopropylbiphenyl-4,4′-bis(oxymethylene phosphate) [Example 3 group]			Number of apoptotic cells (brain cell apoptosis; rat, in vivo, iv, 40 mg/kg): 29.72 ± 3.43
CC(C)c1cc(-c2cc(C(C)C)c(Cl)c(C(C)C)c2)cc(C(C)C)c1O [Example 9 group, 4-chloro-4′-hydroxy-3,3′,5,5′-tetraisopropylbiphenyl]			Number of apoptotic cells (brain cell apoptosis; rat, in vivo, iv, 40 mg/kg): 31.44 ± 5.19
CC(=O)OC(C)Oc1c(C(C)C)cc(-c2cc(C(C)C)c(O)c(C(C)C)c2)cc1C(C)C (stereo not drawn) [Example 12 group, Ethyl 1-(4′-hydroxy-3,3′,5,5′-tetraisopropylbiphenyl-4-oxo)acetate]	31.79 ± 5.94	32.45 ± 4.21	
CC(=O)Oc1c(C(C)C)cc(-c2cc(C(C)C)c(O)c(C(C)C)c2)cc1C(C)C [Example 1 group, 4′-hydroxy-3,3′,5,5′-tetraisopropylbiphenyl-4-acetate]			Relative Brain infarction volume (%) ([1]; 40 mg/kg): 24.71 ± 3.76 %
CC(C)c1cc(-c2cc(C(C)C)c(OC=O)c(C(C)C)c2)cc(C(C)C)c1O [Example 10 group]	26.46 ± 4.52	23.67 ± 5.13	
CCCc1cc(-c2cc(CCC)c(O)c(CCC)c2)cc(CCC)c1O [Example 7 group, 4,4′-dihydroxy-3,3′,5,5′-tetrapropylbiphenyl]	21.39 ± 4.01	20.32 ± 4.19	
CC(C)c1cc(-c2cc(C(C)C)c(OC(=O)C(N)C(C)C)c(C(C)C)c2)cc(C(C)C)c1O (stereo not drawn) [Example 11 group, 4′-hydroxy-3,3′,5,5′-tetraisopropylbiphenyl-2-amino-3-methylbutyrate]	28.98 ± 5.24	26.31 ± 3.86	
CCCc1cc(-c2cc(CCC)c(O)c(C(C)C)c2)cc(C(C)C)c1O [Example 6 group, 4,4′-dihydroxy-3,3′-diisopropyl-5,5′-dipropylbiphenyl]	22.53 ± 4.62	21.24 ± 5.30	
CC1=NN(c2ccccc2)C(=O)C1 [Edaravone injection, edaravone, reference compound]			Brain relative infarct volume (%) ([1]; edaravone 3 mg/kg): 31.29 ± 4.02 %; Number of apoptotic cells (brain cell apoptosis; permanent cerebral ischemia model rats, edaravone 3 mg/kg): 33.19 ± 3.81
CC(C)c1cc(-c2cc(C(C)C)c(OC(=O)CCC(=O)O)c(C(C)C)c2)cc(C(C)C)c1O [Example 5 group, [4-(4′-hydroxy-3,3′,5,5′-tetraisopropylbiphenyl)oxy]-4-carbonyl butyric acid]	28.37 ± 5.02	23.48 ± 3.62	
CC(=O)Oc1c(C(C)C)cc(-c2cc(C(C)C)c(OC(C)=O)c(C(C)C)c2)cc1C(C)C [Example 2 group, 3,3′,5,5′-tetraisopropylbiphenyl-4′-diacetate]	27.92 ± 4.51	23.27 ± 3.78	
CC(C)c1cc(-c2cc(C(C)C)c(C(=O)O)c(C(C)C)c2)cc(C(C)C)c1O [Example 8 group, 4′-hydroxy-3,3′,5,5′-tetraisopropylbiphenyl-4-carboxylic acid]	29.74 ± 3.13	27.74 ± 4.20	
